In brackets after ≈: the same amount, converted by molar mass. Read-outs that look alike come from different tables or passages of the source.
Experiments:
Plasma protein binding = assay type: in vitro ADME; conditions: n = 2
Protocol: (§1) Solubility and stability remained unchanged in simulated gastric fluid (SGF) and simulated intestinal fluid (SIF), which mimic gastrointestinal digestion. Intestinal permeability was assessed using a two-chamber system with apical (A, pH 6.5) and basolateral (B, pH 7.4) compartments, representing the luminal and blood/mesenteric lymph sides of the gastrointestinal tract, respectively. […] The efflux ratios for both compounds ranged between 1 and 2, indicating improved permeability relative to the reference compound 1.
Standardized in vitro ADME experiments were performed by Eurofins Cerep (Poitiers, France). […] The compound was classically evaluated at 10 µM for all of the ADME analyses. Bidirectional permeability (apical A to basolateral B pH 6.5/7.4, and basolateral B to apical A pH 7.4/6.5) was assessed in the epithelial colorectal adenocarcinoma cell line (Caco-2 cell line). The results were expressed as ×10^−6 cm/s (Papp) and as % recovery. The efflux ratio, i.e., Papp (B→A)/Papp(A→B), was calculated. Plasma protein binding was analyzed by HPLC-MS/MS after 4 h of incubation at 37 °C, as described by Banker et al.. Concentration was evaluated by LC/MS-MS. […] Respective metabolites for each specific transporter substrate were analyzed by fluorometry or scintillation counting, and % inhibition of control values were calculated. […] The efflux ratio was calculated as Papp(B→A)/Papp(A→B). […]

[1] = Cytotoxicity, MTT/MTS assay; assay type: cell-based, human; conditions: human, SH-SY5Y neuroblastoma cells; percentage of cell death after 24 h treatment at 100 µM (duplicate); read-out: SY5Y % Cytotox
Protocol: (§2) To assess potential cytotoxicity in CNS-relevant cells, human neuroblastoma (SH-SY5Y) cells were exposed to compounds 2–7 at concentrations up to 100 μM. Cell viability was measured using the MTT assay.
(§3) Cytotoxicity was assessed in human SH-SY5Y neuroblastoma cells cultured in Dulbecco’s Modified Eagle Medium (DMEM, Gibco, Thermo Fisher Scientific Inc., Waltham, MA, USA) supplemented with 2 mM L-glutamine, 100 μg/mL streptomycin, 100 IU/mL penicillin, 1 mM non-essential amino acids (all from Invitrogen, Thermo Fisher Scientific Inc., Waltham, MA, USA), and 10% (v/v) heat-inactivated fetal bovine serum (Sigma-Aldrich, Burlington, MA, USA). Cells were maintained at 37 °C in a humidified 5% CO2 atmosphere and serum-starved for 24 h to synchronize cultures before treatment with the test compounds at final concentrations of 100, 50, 10, 5, 1, 0.5, 0.1, or 0.05 μM (all in <0.1% DMSO). […] Absorbance was measured at 490 nm, and the results were expressed as a percentage relative to untreated control cells (set at 100%).

[2] = tested on: SH-SY5Y neuroblastoma cells; experiment: Cytotoxicity, MTT/MTS assay; assay type: cell-based, human; conditions: selectivity index; IC50 was considered > 100 µM
Protocol: as §2, §3

Microsomal stability = assay type: in vitro ADME; conditions: human, liver microsomes
Protocol: Microsomal stability was evaluated using human liver microsomes at 10 µM (Table 3). […] Since cytochrome P450 (CYP) enzymes—especially families 1 to 3—play major roles in drug metabolism, CYP inhibition was tested against the human isoforms CYP1A, 2B6, 2C8, 2C9, 2C19, 2D6, and 3A, as recommended by FDA and EMA guidelines. […] Membrane transport proteins, including the ATP-binding cassette (ABC) and solute carrier (SLC) families, affect drug pharmacokinetics and potential drug–drug interactions. The inhibitory effects of compounds 2 and 6 were assessed against five ABC transporters (P-gp, BCRP, MRP1, MRP2, and MRP3) and seven SLC transporters (OAT1, OAT3, OATP1B1, OCT1, OCT2, ASBT, and NTCP).

[3] = Bidirectional permeability in Caco-2 cells; assay type: in vitro ADME; conditions: human; for Papp A→B at 10 µM / Papp B→A at 10 µM: pH 7.4, 10 µM; for Papp A→B at 10 µM: n = 2, read-out: Permeability A/B pH7.4/7.4; for Papp B→A at 10 µM: n = 2, read-out: Permeability B/A pH7.4/7.4; for efflux ratio at 10 µM: read-out: e-ratio
Protocol: as §1
(§4) Standardized in vitro ADME experiments were performed by Eurofins Cerep (Poitiers, France). Solubility assays were performed in PBS at pH 7.4, but also in simulated gastric fluid (SGF) and intestinal fluid (SIF), through the classical shake-flask method described by Lipinski et al., using HPLC-UV/VIS technology. The results were expressed in µM. The compound was classically evaluated at 10 µM for all of the ADME analyses. Bidirectional permeability (apical A to basolateral B pH 6.5/7.4, and basolateral B to apical A pH 7.4/6.5) was assessed in the epithelial colorectal adenocarcinoma cell line (Caco-2 cell line). The results were expressed as ×10^−6 cm/s (Papp) and as % recovery. The efflux ratio, i.e., Papp (B→A)/Papp(A→B), was calculated. Plasma protein binding was analyzed by HPLC-MS/MS after 4 h of incubation at 37 °C, as described by Banker et al.. Concentration was evaluated by LC/MS-MS. CYP inhibition was performed in human liver microsomes as described in [28]. Analysis of the respective metabolites was performed by HPLC-MS/MS. Transporter inhibition analysis was also performed in overexpressing cell lines. Respective metabolites for each specific transporter substrate were analyzed by fluorometry or scintillation counting, and % inhibition of control values were calculated. P-glycoprotein transporter substrate assessment was performed by bidirectional permeability analysis (apical A to basolateral B pH 7.4/7.4, and basolateral B to apical A pH 7.4/7.4) in the Caco-2 cell line with and without verapamil, as described in [26]. The results were expressed as ×10^−6 cm/s (Papp) and as % recovery. The efflux ratio was calculated as Papp(B→A)/Papp(A→B). CYP450 induction was assessed in human hepatocytes by measuring the mRNA levels of seven CYP isoforms via qPCR, as described in [40]. The compound was tested at 1, 10, and 100 μM, and fold-induction values were compared with predefined cut-off thresholds for each isoform and hepatocyte lot.

[4] = Solubility, shake-flask method, HPLC-UV/VIS; assay type: physicochemical; conditions: thermodynamic from solid, n = 2
Protocol: as §1, §4

[5] = n = 2, read-out: Human liver microsome intrinsic clearance
[6] = aqueous buffer, PBS pH 7.4, read-out: Solubility PBSpH7.4
[7] = simulated gastric fluid (SGF), simulated gastric fluid, read-out: Solubility SGF
[8] = simulated intestinal fluid (SIF), fassgf or other biorelevant, simulated intestinal fluid, read-out: Solubility SIF

| SMILES | fraction unbound at 4 h, 10 µM (Plasma protein binding) | cytotoxicity at 24 h, 100 µM [1] [%] | IC50 (SY5Y)/ Ki (S1R) [2] | microsomal CLint at 10 µM (Microsomal stability; [5]) [µL/min/mg] | Papp A→B at 10 µM [3] [×10⁻⁶ cm/s] | Papp B→A at 10 µM [3] [×10⁻⁶ cm/s] | efflux ratio at 10 µM [3] | solubility [4, 6] [µM] | solubility [4, 7] [µM] | solubility [4, 8] [µM] | half-life at 10 µM (Microsomal stability; as in running text, read-out: Human liver microsome half-life) [h] | half-life at 10 µM (Microsomal stability; n = 2, read-out: Human liver microsome half-life t1/2) [h] | microsomal CLint at 10 µM (Microsomal stability; read-out: Human liver microsome clearance) [µL/min/mg] |
| --- | --- | --- | --- | --- | --- | --- | --- | --- | --- | --- | --- | --- | --- |
| CN(CCC(=O)NCc1cccc(Cl)c1)Cc1ccccc1 [Compound 2, 3-(Benzylmethylamino)-N-(3-chlorobenzyl)propanamide] | 0.02 | 12 | >166,666 | 135 | 39 | 67.4 | 1.7 | 167 (≈ 52.9 µg/mL) | 186 (≈ 58.9 µg/mL) | 181 (≈ 57.3 µg/mL) |  |  |  |
| CN(CCC(=O)NCc1ccc(C#N)cc1)Cc1ccccc1 [Compound 6, 3-(Benzylmethylamino)-N-(4-cyanobenzyl)propanamide] | 0.37 | 8 | >17,857 | < 116 | 49.8 | 60.9 | 1.2 | 190 (≈ 58.4 µg/mL) | 178 (≈ 54.7 µg/mL) | 190 (≈ 58.4 µg/mL) | > 1 | > 1 | < 115 |

From paper PMC12430443, “Discovery of Novel Benzamide-Based Sigma-1 Receptor Agonists with Enhanced Selectivity and Safety” (Molecules, 2025)
